Experimental findings from PubChem BioAssay (NCI) are described below.

Among the test systems are 786-0 renal; A498 renal; HT29 colon; NCI-H226 lung; NCI-H522 lung; PC-3 prostate; SK-MEL-5 melanoma; SK-OV-3 ovarian; SW-620 colon; T-47D breast.
Experiment in all cases: growth of human tumour cells (NCI), 48 h

Where “and” joins values, the source holds several entries; their conditions need not be identical. Equal entries are not always repeated.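 Compound exposure: 48 hours, 5 concentrations, 96-well plates. GI50 marks 50% less growth. TGI: concentration producing complete growth inhibition.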

Take `C=CCN1C(=O)/C(=C/c2ccc(C)cc2)N=C1SC1OC(COC(C)=O)C(OC(C)=O)C(OC(C)=O)C1OC(C)=O` (configuration not stated): the TGI was > 100 µM in the assay with 786-0 renal; > 100 µM and 69.5 µM with A498 renal; > 100 µM in the assay on HT29 colon; > 100 µM and 85.6 µM with NCI-H226 lung; > 100 µM with NCI-H522 lung; > 100 µM with PC-3 prostate. For the same molecule, the TGI in the assay on SK-MEL-5 melanoma is > 100 µM; in the assay with SK-OV-3 ovarian, > 100 µM and 85.4 µM; in the assay on SW-620 colon, > 100 µM; in the assay on T-47D breast it was > 100 µM. Moreover, the GI50 with A498 renal is > 100 µM and 23.4 µM; in the assay on NCI-H226 lung it was > 100 µM and 20.9 µM; in the assay with NCI-H522 lung it was 6.85 µM; with PC-3 prostate it was > 100 µM and 34.2 µM; with SK-MEL-5 melanoma, 11.2 µM and 32.9 µM; with SK-OV-3 ovarian, > 100 µM and 28.9 µM. The GI50 in the assay on SW-620 colon is > 100 µM and 39.1 µM.
Regarding `COC(=O)C1(O)C(c2ccccc2)=NC2(C)CCCC21` (configuration not stated), the TGI in the assay with 786-0 renal, in the assay on A498 renal, with HT29 colon, with NCI-H226 lung, in the assay with NCI-H522 lung and in the assay on PC-3 prostate was > 100 µM throughout. Further, the TGI in the assay with SK-MEL-5 melanoma, in the assay with SK-OV-3 ovarian, with SW-620 colon and with T-47D breast was > 100 µM throughout.
Regarding `Cc1c(-c2ccccc2)[nH]n(C2=NCCN2)c1=O`, the TGI in the assay on 786-0 renal, in the assay on A498 renal, in the assay on HT29 colon, in the assay on NCI-H226 lung, in the assay on NCI-H522 lung and in the assay with PC-3 prostate was > 100 µM throughout. For the same molecule, the TGI in the assay with SK-MEL-5 melanoma, with SK-OV-3 ovarian, in the assay with SW-620 colon and with T-47D breast was > 100 µM each time.
Regarding `CCNc1ncnc2sc(SCc3ccccc3)nc12`, the TGI in the assay with 786-0 renal, in the assay with A498 renal, in the assay with HT29 colon, in the assay on NCI-H226 lung, in the assay with NCI-H522 lung and in the assay on PC-3 prostate was > 100 µM each time. In addition, the TGI with SK-MEL-5 melanoma, in the assay on SK-OV-3 ovarian, in the assay on SW-620 colon and in the assay with T-47D breast was > 100 µM throughout.
Regarding `O=C(CC(=O)Nc1ccccc1)NNC(c1cc(N=Nc2ccc(Br)cc2)ccc1O)P(O)O` (configuration not stated), the TGI in the assay with 786-0 renal was > 10 µM; in the assay on A498 renal, 8.72 µM; in the assay on HT29 colon, > 10 µM; in the assay with NCI-H226 lung, 9.43 µM; in the assay with NCI-H522 lung, > 10 µM; with PC-3 prostate, > 10 µM. Also, the TGI in the assay on SK-MEL-5 melanoma, in the assay with SK-OV-3 ovarian, in the assay with SW-620 colon and with T-47D breast was > 10 µM throughout.
As to `O=C(O)CN(CC(=O)O)C(C(=O)O)c1ccccc1` (configuration not stated), the TGI in the assay with 786-0 renal, with A498 renal, in the assay on HT29 colon, with NCI-H226 lung, with NCI-H522 lung and in the assay with PC-3 prostate was > 100 µM each time. Further, the TGI with SK-MEL-5 melanoma, with SK-OV-3 ovarian, with SW-620 colon and with T-47D breast was > 100 µM in each case.
For the molecule `O=[N+]([O-])c1cc(Cl)ccc1Sc1ccccc1`, the TGI in the assay with 786-0 renal, in the assay on A498 renal, with HT29 colon, with NCI-H226 lung, with NCI-H522 lung and in the assay on PC-3 prostate was > 100 µM throughout. Besides, the TGI in the assay on SK-MEL-5 melanoma, with SK-OV-3 ovarian, in the assay on SW-620 colon and with T-47D breast was > 100 µM throughout.
Turning to `COP(=O)(OC)C(Nc1ccc(Cc2ccc(NC(c3ccco3)P(=O)(OC)OC)cc2)cc1)c1ccco1` (configuration not stated), the TGI in the assay on 786-0 renal is > 100 µM; in the assay with A498 renal, 56 µM; with HT29 colon, > 100 µM; in the assay with NCI-H226 lung, > 100 µM; in the assay with NCI-H522 lung, > 100 µM; in the assay with PC-3 prostate, > 100 µM. Further, the TGI with SK-MEL-5 melanoma is > 100 µM; with SK-OV-3 ovarian, 73.6 µM; in the assay with SW-620 colon, > 100 µM; in the assay with T-47D breast it was > 100 µM.
`CC(C)/C(Cl)=N/OC(=O)Nc1ccc(OC(F)(F)F)cc1`: the TGI with 786-0 renal came to 19.6 µM; with A498 renal, 32.9 µM; in the assay with HT29 colon, 35.9 µM; in the assay with NCI-H226 lung it was 23.5 µM; in the assay with NCI-H522 lung, 2.81 µM; in the assay on PC-3 prostate, 30.4 µM. Also, the TGI turned out to be 21.3 µM in the assay on SK-MEL-5 melanoma, 31.9 µM with SK-OV-3 ovarian, 3.27 µM with SW-620 colon and 25.8 µM in the assay on T-47D breast.
With `N#Cc1c(-c2ccccc2)c2c([nH]c1=O)-c1cc([N+](=O)[O-])ccc1CCC2`, the TGI in the assay with 786-0 renal was > 100 µM; with A498 renal it was 41 µM; in the assay on HT29 colon, > 100 µM; with NCI-H226 lung, 71.6 µM; in the assay with NCI-H522 lung, 97.8 µM; with PC-3 prostate it was > 100 µM. Besides, the TGI is 76 µM with SK-MEL-5 melanoma, > 100 µM in the assay with SK-OV-3 ovarian, > 100 µM with SW-620 colon and 52.2 µM in the assay on T-47D breast.
For the molecule `CCOC(=O)C1=CC(C)(C(=O)OCC)Nc2c(nc(N)[nH]c2=O)N1` (configuration not stated), the TGI with 786-0 renal, in the assay on A498 renal, in the assay on HT29 colon, in the assay with NCI-H226 lung, in the assay with NCI-H522 lung and with PC-3 prostate was > 10 µM in each case. Besides, the TGI in the assay with SK-MEL-5 melanoma, in the assay on SK-OV-3 ovarian, in the assay with SW-620 colon and in the assay with T-47D breast was > 10 µM throughout.
For `COc1cc2[nH]c(-c3ccccc3)cc(=O)c2c(OC)c1OC`, the TGI with 786-0 renal, in the assay with A498 renal, in the assay with HT29 colon, in the assay on NCI-H226 lung, in the assay on NCI-H522 lung and in the assay with PC-3 prostate was > 100 µM in each case. Also, the TGI with SK-MEL-5 melanoma, in the assay on SK-OV-3 ovarian, with SW-620 colon and in the assay on T-47D breast was > 100 µM in each case.
